Tests used:
[1] = Cytotoxicity against chicken embryo fibroblasts infected with Influenza A virus (A/Chicken/Shandong/LY/08(H9N2)) preincubated for 1 hr followed by viral-infection measured after 2 days by MTS assay; assay type: cell-based, Gallus gallus, Fibroblast
[2] = system: Influenza A virus; experiment: Antiviral activity against Influenza A virus (A/Chicken/Shandong/LY/08(H9N2)) infected in chicken embryo fibroblasts assessed as protection against virus-induced cytopathic effect preincubated for 1 hr followed by viral-infection measured after 2 days by MTS assay; assay type: functional, organism-based, Influenza A virus (A/chicken/Shandong/LY/2008(H9N2))
[3] = target: T1, Neuraminidase (Influenza A virus, UniProt B4URF0); experiment: Inhibition of influenza A virus A/duck/China/QJ/01(H5N1) neuraminidase using 4-MU-NANA as substrate incubated for 5 mins prior to substrate addition measured after 30 to 60 mins by fluorescence assay
[4] = target: T1, Neuraminidase; experiment: Inhibition of Influenza A virus (A/Chicken/Shandong/LY/08(H9N2)) neuraminidase using 4-MU-NANA as substrate incubated for 5 mins prior to substrate addition measured after 30 to 60 mins by fluorescence assay; set-up: species or system Influenza A virus (A/chicken/Shandong/LY/2008(H9N2))
[5] = target: T1, Neuraminidase; experiment: Non competitive inhibition of Influenza A virus (A/Chicken/Shandong/LY/08(H9N2)) neuraminidase using 4-MU-NANA as substrate incubated for 5 mins prior to substrate addition measured after 30 to 60 mins by Lineweaver-Burk plot analysis; set-up: species or system Influenza A virus (A/chicken/Shandong/LY/2008(H9N2))
[6] = target: T1, Neuraminidase; experiment: Non competitive inhibition of influenza A virus A/duck/China/QJ/01(H5N1) neuraminidase using 4-MU-NANA as substrate incubated for 5 mins prior to substrate addition measured after 30 to 60 mins by Lineweaver-Burk plot analysis

SMILES | CC50 at 48 h [1] | EC50 [2] | IC50 [3] | IC50 [4] | Ki [5] | Ki [6]
CCC(CC)C(=O)Nc1cc(NC(=O)[C@H](CC(C)C)NC(=O)/C=C/c2ccc(O)c(O)c2)ccc1OCC(=O)O | 89.7 µM | 13.5 µM | 14 µM | 8.5 µM | – | –
CCC(CC)C(=O)Nc1cc(NC(=O)C(C)C)c(NC(=N)N)cc1OCC(=O)O | – | – | – | 83.2 µM | – | –
CCC(CC)C(=O)Nc1cc(NC(=O)NCc2ccccc2)ccc1OCC(=O)O | – | – | 55.6 µM | 49.7 µM | – | –
C#CCNC(=O)Nc1ccc(OCC(=O)O)c(NC(=O)C(CC)CC)c1 | – | – | – | 89.8 µM | – | –
CCC(CC)C(=O)Nc1cc(NS(=O)(=O)c2ccc(C)cc2)ccc1OCC(=O)O | – | – | 86.7 µM | 78.6 µM | – | –
CCC(CC)C(=O)Nc1cc(NC(C)=O)c(N)cc1OCC(=O)O | – | – | 58.5 µM | 46.4 µM | – | –
CCC(CC)C(=O)Nc1cc(NC(C)=O)c(NC(=O)CCc2ccc(O)c(O)c2)cc1OCC(=O)O | 47.2 µM | – | 42.7 µM | 15.8 µM | – | –
CCC(CC)C(=O)Nc1cc(NC(=O)C(C)C)c(N)cc1OCC(=O)O | – | – | 61.2 µM | 54.3 µM | – | –
CCC(CC)C(=O)Nc1cc(NC(=O)[C@@H](NC(=O)/C=C/c2ccc(O)c(O)c2)C(C)C)ccc1OCC(=O)O | 70.4 µM | 22.9 µM | 16.6 µM | 9.4 µM | – | –
CCC(CC)C(=O)Nc1cc(NC(C)=O)c(NC(=O)/C=C/c2ccc(O)c(O)c2)cc1OCC(=O)O | > 100 µM | 13.8 µM | 10.7 µM | 3.2 µM | 2.7 µM | –
CCC(CC)C(=O)Nc1cc(NC(=O)N[C@H](CC)CO)ccc1OCC(=O)O | – | – | – | > 100 µM | – | –
CCC(CC)C(=O)Nc1cc(NC(=O)CNC(=O)/C=C/c2ccc(O)c(O)c2)ccc1OCC(=O)O | > 100 µM | 33.6 µM | 17.6 µM | 9.2 µM | – | –
CCC(CC)C(=O)Nc1cc(NC(=O)c2ccco2)ccc1OCC(=O)O | – | – | – | > 100 µM | – | –
CCC(CC)C(=O)Nc1cc(N(Cc2cccs2)C(=O)/C=C/c2ccc(O)c(O)c2)ccc1OCC(=O)O | 87.6 µM | – | 16.4 µM | 24.1 µM | – | –
CCC(CC)C(=O)Nc1cc(NC(=N)N)ccc1OCC(=O)O | – | – | – | > 100 µM | – | –
CCC(CC)C(=O)Nc1cc(NC(=O)C(C)C)c(NC(=O)CCc2ccc(O)c(O)c2)cc1OCC(=O)O | – | – | 38.2 µM | 14.2 µM | – | –
CCC(CC)C(=O)Nc1cc(N(Cc2ccccc2)C(=O)/C=C/c2ccc(O)c(O)c2)ccc1OCC(=O)O | 78.2 µM | – | 11.4 µM | 16 µM | – | 32.5 µM
CCC(CC)C(=O)Nc1cc(NC(=O)[C@H](Cc2ccccc2)NC(=O)/C=C/c2ccc(O)c(O)c2)ccc1OCC(=O)O | 68.3 µM | – | 16.2 µM | 9.8 µM | – | –
CCC(CC)C(=O)Nc1cc(N)ccc1OCC(=O)O | – | – | – | > 100 µM | – | –
CCC(CC)C(=O)Nc1cc(NC(=O)[C@H](C)NC(=O)/C=C/c2ccc(O)c(O)c2)ccc1OCC(=O)O | > 100 µM | 25.4 µM | 16.1 µM | 7.9 µM | – | 9.5 µM
CCC(CC)CN(C(=O)/C=C/c1ccc(O)c(O)c1)c1ccc(OCC(=O)O)c(NC(=O)C(CC)CC)c1 | > 100 µM | 56.4 µM | 11.3 µM | 25.2 µM | – | –
CCC(CC)C(=O)Nc1cc(NC(=O)C(C)C)c(NC(=O)/C=C/c2ccc(O)c(O)c2)cc1OCC(=O)O | > 100 µM | 14.5 µM | 14.2 µM | 5.8 µM | – | –
CCC(CC)C(=O)Nc1cc(NC(C)=O)c(NC(=N)N)cc1OCC(=O)O | – | – | 75.8 µM | 69.1 µM | – | –
CCC(CC)C(=O)Nc1ccc(OCC(=O)O)c(NC(=O)C(CC)CC)c1 | – | – | – | > 100 µM | – | –

Reference: ChEMBL document CHEMBL3091439, “Further discovery of caffeic acid derivatives as novel influenza neuraminidase inhibitors” (Bioorg Med Chem, 2013)
